Columns and labels:
Assay type in all cases: cell-based
GluR1 AMPA receptor = molecular target: T1, GluR1 AMPA receptor (Rattus norvegicus, UniProt P19490); assay: Kainate-induced currents, Xenopus oocytes injected with GluR1 cRNA; conditions: GluR1, steroid 100 μM; for Percentage change in kainate response: 100 μM kainate, −100 mV
T1 construct: expressed in transfected cells; host or cells: Xenopus oocytes injected with GluR1 cRNA
Description: (§1) Plasmids were obtained from the following individuals: Dr. Suzanne Zukin (Albert Einstein College of Medicine, Bronx, N.Y.), NR1100; Dr. Shigetada Nakanishi (Kyoto University Faculty of Medicine, Kyoto, Japan), NR2A; Dr. Stephen Heinemann (Salk Institute, San Diego, Calif.), GluR1 (flop), GluR3 (flop), and GluR6. Plasmids were linearized with BamH1 (NR1100), XhoI (NR2A, GluR1, GluR3) or XbaI (GluR6) prior to in vitro transcription with T3 (GluR1, GluR3, GluR6) or T7 (NR1100, NR2A) RNA polymerase using the Message Machine kit (Ambion, Austin, Tex.). […] RNA solutions (50-70 nl) were injected into oocytes for delivery of NR1100 (5 ng), NR1100:NR2A (1:10 ng), GluR1 (5 ng). GluR3 (5 ng), or GluR6 (20 ng). Oocytes were incubated in ND96 at 18-20° C. for 3-7 days prior to electrophysiological recording.
(§2) Steroid solutions were prepared as 70-100 mM frozen stocks in dimethyl sulfoxide (DMSO). The final DMSO concentration of all recording solutions was between 0.1% to 0.5% and was constant within an experiment.
(§3) Perfusion control and data acquisition were carried out using an automated oocyte electrophysiology workstation that was developed for the rapid collection of concentration-response data and real-time waveform analysis (Yaghoubi et al., Soc. Neurosci. Abstr. 20: 1109 (1995)). This system is implemented on a Macintosh IIci computer (Apple Computer, Cupertino, Calif.) equipped with MacA-DIOS II data acquisition and control hardware (GW Instruments, Somerville, Mass.). Drug application is controlled by the computer through a series of valves, using custom-written software based on the SuperScope II development environment, improving the efficiency and reproducibility of data collection. Experiments were carried out using an Axoclamp-2A voltage clamp amplifier (Axon Instruments, Foster City, Calif.) in two-electrode voltage clamp mode. Intracellular microelectrodes (1-3 MΩ) were filled with 3 M KCl. […] Membrane potential was clamped at −60 to −70 mV and stepped to −100 mV at the start of data acquisition unless otherwise stated. […] Current and voltage recordings were digitized at 100 Hz for analysis. GluR6 injected oocytes were treated for 10 min with 10 μg/ml concanavalin A to prevent fast desensitization.
(§4) Results are expressed as mean±S.E.M. Statistical comparisons were made using Student's t-test.

GluR3 AMPA receptor = molecular target: T2, GluR3 AMPA receptor (Rattus norvegicus, UniProt P19492); assay: Kainate-induced currents, Xenopus oocytes injected with GluR3 cRNA; conditions: GluR3, steroid 100 μM; for Percentage change in kainate response: 100 μM kainate, −100 mV
T2 construct: expressed in transfected cells; host or cells: Xenopus oocytes injected with GluR3 cRNA
Description: as §1, §2, §3, §4

GluR6 kainate receptor = molecular target: T3, GluR6 kainate receptor (Rattus norvegicus, UniProt P42260); assay: Kainate-induced currents, Xenopus oocytes injected with GluR6 cRNA; conditions: GluR6, steroid 100 μM; for Percentage change in kainate response: 10 μM kainate, −100 mV
T3 construct: expressed in transfected cells; host or cells: Xenopus oocytes injected with GluR6 cRNA (concanavalin A treated)
Description: as §1, §2, §3, §4

[1] = molecular target: T4, NR1100+NR2A NMDA receptor (Rattus norvegicus, UniProt P35439+Q00959); assay: NMDA-induced currents, Xenopus oocytes, Example 1; conditions: NR1100 + NR2A; steroid 100 μM; 100 μM NMDA; −100 mV
T4 construct: expressed in transfected cells; host or cells: Xenopus oocytes co-injected with NR1100 and NR2A cRNA
Description: as §1, §2, §3, §4

[2] = tested on: primary cultures of rat hippocampal neurons; assay: NMDA-induced neuronal death, trypan blue exclusion; conditions: DNQX; 100 μM SR-95531; not shown
Protocol: Principally neuronal cultures were prepared from hippocampal tissue of fetal Sprague-Dawley rats on day 18 of embryonic development, as previously described (Brewer et al., Brain Research 494: 65-74 (1989)). Briefly, hippocampal cells were dissociated by trituration in Ca^2+/Mg^2+-free Hank's basic salt solution (Gibco) supplemented with 4.2 mM bicarbonate, 1 mM sodium pyruvate, 20 mM HEPES, 3 mg/ml bovine serum albumin (BSA). Dissociated cells were then pelleted by centrifugation (500×g, 4 min). […] Cells were then plated onto poly-L-lysine-coated 24-well culture dishes (Nunclon) at a density of 15,000 cell/cm^2 and maintained in a humidified atmosphere containing 5% CO2/95% air at 37° C. After 48 h, nonneuronal cell division was inhibited by a 48 h exposure to 1 μM cytosine arabinoside. Cultures were subsequently maintained in serum-free DMEM plus defined components and were used for experiments 16 to 24 days after plating.
Steroids were dissolved in DMSO (0.5% final concentration), and all treatment media contained 0.5% DMSO. […] Following exposure, cultures were washed 3 times with medium from sister cultures (conditioned medium). After the final wash, steroid or vehicle was reintroduced. Drugs were added to cultures in 25 μl of conditioned medium to yield a final volume of 0.25 ml per well. Except where otherwise noted, final steroid concentration was 100 μM.
The ability of neurons to exclude trypan blue was used to quantitate cell viability (Dawson et al., Proc Natl Acad Sci USA 88: 6368-6371 (1991)). […] Cultures were then fixed with 4% paraformaldehyde in PBS for 30 min, at whichtime the fixative was replaced with PBS. The number of stained and unstained neurons were counted in 4 high-power fields per culture well, using an inverted phase contrast microscope under both bright field and phase contrast settings. Experiments were performed in triplicate, and all assessments were made with the experimenter blind to the treatment of each culture well. Percent cell death is expressed as follows: (number of trypan blue stained neurons)/(total number of neurons)×100%.
All data are expressed as mean±standard error of the mean. Statistical significance was evaluated using 95% confidence limits unless otherwise noted.

T2 sequence (P19492 23-888): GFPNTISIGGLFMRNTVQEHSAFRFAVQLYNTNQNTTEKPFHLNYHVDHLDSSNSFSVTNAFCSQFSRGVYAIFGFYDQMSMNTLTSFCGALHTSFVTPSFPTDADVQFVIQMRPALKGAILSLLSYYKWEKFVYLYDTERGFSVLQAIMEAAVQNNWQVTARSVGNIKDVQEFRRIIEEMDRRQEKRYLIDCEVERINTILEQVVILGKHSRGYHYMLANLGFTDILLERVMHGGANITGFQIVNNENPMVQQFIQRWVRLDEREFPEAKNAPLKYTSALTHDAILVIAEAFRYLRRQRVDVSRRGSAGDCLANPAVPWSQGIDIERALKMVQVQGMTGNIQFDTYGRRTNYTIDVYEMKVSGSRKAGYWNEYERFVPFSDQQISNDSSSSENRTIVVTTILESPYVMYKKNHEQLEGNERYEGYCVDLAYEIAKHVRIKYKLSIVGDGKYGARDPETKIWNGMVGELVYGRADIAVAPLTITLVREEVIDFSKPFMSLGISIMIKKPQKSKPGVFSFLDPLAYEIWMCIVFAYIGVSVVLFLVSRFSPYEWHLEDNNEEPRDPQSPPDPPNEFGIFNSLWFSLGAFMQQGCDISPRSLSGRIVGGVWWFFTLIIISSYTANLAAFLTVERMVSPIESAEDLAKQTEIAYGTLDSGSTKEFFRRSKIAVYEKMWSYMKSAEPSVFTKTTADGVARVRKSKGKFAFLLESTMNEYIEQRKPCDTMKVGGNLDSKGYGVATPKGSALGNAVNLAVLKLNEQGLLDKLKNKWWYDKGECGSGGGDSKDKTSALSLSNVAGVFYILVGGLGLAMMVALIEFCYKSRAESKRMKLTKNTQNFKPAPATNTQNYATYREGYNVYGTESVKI
T1 sequence (P19490 19-907): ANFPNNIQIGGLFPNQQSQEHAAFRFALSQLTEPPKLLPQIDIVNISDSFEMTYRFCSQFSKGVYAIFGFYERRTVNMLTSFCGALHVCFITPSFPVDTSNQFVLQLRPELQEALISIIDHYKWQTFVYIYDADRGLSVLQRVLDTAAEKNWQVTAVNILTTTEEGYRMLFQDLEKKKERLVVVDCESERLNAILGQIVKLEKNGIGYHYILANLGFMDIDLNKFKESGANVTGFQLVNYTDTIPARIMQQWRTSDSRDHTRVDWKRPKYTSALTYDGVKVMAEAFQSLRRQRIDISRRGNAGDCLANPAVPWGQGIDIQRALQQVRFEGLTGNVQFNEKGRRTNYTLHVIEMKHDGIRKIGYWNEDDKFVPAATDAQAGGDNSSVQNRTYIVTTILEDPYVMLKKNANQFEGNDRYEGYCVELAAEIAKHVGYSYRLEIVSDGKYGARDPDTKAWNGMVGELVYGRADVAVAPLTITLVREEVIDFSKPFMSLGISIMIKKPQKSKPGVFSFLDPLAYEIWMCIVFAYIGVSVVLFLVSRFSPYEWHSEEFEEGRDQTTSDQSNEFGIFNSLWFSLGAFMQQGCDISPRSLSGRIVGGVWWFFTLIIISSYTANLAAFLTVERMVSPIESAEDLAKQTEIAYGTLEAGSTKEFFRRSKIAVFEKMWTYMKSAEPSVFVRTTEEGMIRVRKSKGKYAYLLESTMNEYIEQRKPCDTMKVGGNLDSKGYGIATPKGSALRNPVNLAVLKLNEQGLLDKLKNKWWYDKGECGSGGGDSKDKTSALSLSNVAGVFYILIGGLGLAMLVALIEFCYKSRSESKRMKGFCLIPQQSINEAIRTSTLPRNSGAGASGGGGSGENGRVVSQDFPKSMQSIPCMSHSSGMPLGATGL
T3 sequence (P42260 32-908): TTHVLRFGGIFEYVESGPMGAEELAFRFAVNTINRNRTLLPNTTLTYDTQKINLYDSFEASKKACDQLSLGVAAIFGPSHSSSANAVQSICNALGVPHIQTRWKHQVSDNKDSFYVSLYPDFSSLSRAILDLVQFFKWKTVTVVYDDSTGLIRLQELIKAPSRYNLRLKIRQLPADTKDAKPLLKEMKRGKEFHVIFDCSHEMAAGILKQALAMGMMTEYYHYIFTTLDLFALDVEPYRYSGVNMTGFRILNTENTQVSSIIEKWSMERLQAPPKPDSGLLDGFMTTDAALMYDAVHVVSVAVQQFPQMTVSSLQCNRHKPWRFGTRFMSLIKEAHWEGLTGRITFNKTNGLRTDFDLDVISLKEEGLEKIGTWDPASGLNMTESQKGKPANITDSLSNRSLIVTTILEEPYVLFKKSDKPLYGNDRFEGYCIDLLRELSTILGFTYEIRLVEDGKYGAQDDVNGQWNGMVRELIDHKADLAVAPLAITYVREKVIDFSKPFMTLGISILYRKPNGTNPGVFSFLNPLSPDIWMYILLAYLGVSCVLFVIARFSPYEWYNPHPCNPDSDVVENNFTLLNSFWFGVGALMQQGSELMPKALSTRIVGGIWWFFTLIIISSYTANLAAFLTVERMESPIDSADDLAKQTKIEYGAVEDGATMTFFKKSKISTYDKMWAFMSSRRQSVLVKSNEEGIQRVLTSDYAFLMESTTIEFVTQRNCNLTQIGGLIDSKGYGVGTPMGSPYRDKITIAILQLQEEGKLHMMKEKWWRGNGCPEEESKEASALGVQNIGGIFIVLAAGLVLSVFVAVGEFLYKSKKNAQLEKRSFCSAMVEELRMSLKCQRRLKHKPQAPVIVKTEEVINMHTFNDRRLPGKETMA
T4 sequence (Q00959 23-1464, other chains not shown): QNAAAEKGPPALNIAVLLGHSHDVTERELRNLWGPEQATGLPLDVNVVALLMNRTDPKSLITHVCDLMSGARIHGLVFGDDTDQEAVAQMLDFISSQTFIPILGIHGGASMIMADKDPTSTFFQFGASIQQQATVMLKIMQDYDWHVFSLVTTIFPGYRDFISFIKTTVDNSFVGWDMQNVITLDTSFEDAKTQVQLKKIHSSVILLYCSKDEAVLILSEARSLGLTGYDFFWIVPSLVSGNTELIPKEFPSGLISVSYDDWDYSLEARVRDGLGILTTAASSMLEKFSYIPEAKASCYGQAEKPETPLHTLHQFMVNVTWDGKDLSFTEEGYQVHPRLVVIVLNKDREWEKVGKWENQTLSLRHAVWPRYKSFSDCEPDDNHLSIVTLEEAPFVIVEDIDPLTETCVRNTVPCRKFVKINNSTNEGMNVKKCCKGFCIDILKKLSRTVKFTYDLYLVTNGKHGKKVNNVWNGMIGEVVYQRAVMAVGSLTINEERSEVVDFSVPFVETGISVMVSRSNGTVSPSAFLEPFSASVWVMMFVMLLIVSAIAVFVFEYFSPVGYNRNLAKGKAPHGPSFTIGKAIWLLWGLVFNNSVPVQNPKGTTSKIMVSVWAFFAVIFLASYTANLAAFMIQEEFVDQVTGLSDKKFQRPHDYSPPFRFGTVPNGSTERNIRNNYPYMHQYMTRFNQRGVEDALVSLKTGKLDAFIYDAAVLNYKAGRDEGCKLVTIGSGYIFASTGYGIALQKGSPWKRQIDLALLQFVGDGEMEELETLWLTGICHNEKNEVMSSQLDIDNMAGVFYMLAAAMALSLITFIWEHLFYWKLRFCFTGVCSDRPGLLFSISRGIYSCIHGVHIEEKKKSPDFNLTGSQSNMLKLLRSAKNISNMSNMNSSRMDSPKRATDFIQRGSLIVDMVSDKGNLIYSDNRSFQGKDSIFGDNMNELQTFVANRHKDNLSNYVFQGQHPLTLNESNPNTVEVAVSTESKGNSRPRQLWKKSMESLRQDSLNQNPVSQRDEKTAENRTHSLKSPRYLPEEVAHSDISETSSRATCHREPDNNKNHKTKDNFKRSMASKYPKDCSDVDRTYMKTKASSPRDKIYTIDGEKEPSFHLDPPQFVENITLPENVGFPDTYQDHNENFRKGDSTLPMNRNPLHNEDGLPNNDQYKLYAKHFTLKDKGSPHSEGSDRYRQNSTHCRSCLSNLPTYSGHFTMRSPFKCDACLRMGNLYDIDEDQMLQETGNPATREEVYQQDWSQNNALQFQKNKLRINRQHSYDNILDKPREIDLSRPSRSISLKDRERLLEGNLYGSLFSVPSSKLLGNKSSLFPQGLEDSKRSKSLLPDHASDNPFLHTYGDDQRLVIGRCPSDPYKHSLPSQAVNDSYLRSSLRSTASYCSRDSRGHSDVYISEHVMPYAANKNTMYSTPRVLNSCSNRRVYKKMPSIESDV

C[C@]12CC[C@@H]3c4ccc(OS(=O)(=O)O)cc4CC[C@H]3[C@@H]1CC[C@@H]2O [17β-Estradiol-3-sulfate]
inhibition of the response to kainate (GluR1 AMPA receptor): no effect
Percentage change in kainate response (GluR1 AMPA receptor): −2 ± 2(3) %
inhibition of the response to kainate (GluR3 AMPA receptor): no effect
Percentage change in kainate response (GluR3 AMPA receptor): −8 ± 4(3) %
inhibition of the response to kainate (GluR6 kainate receptor): 12%
Percentage change in kainate response (GluR6 kainate receptor): −13 ± 4(4) %
Percentage change in NMDA response [1]: +12 ± 3(4) %

C[C@]12CC[C@H](O)CC1=CC[C@@H]1[C@@H]2CC[C@]2(C)C(=O)CC[C@@H]12 [Dehydroepiandrosterone]
Percentage change in kainate response (GluR1 AMPA receptor): −16 ± 3(3) %
Percentage change in kainate response (GluR3 AMPA receptor): −7 ± 5(3) %
Percentage change in kainate response (GluR6 kainate receptor): −5 ± 1(3) %

Dehydroepiandrosterone sulfate
Percentage change in kainate response (GluR1 AMPA receptor): −23 ± 3(3) %
Percentage change in kainate response (GluR3 AMPA receptor): −7 ± 1(4) %
Percentage change in kainate response (GluR6 kainate receptor): −17 ± 5(3) %
Percentage change in NMDA response [1]: +8 ± 13(3) %

O=C1N=c2cc([N+](=O)[O-])c([N+](=O)[O-])cc2=NC1=O [DNQX, 6,7-dinitroquinoxaline-2,3-dione]
effect on NMDA-induced neuronal death [2]: no effect
